pIC50, pKi: −log10 of the molar value.
Legend:
[1] = Inhibition of apamin-sensitive SKCa channel of guinea-pig hepatocytes; format: cell-based, Cavia porcellus; details: hepatocyte
[2] = Inhibition of I-apamin-sensitive SKCa channel of guinea-pig hepatocytes; 0.14+/-0.01; format: cell-based, Cavia porcellus; details: hepatocyte

Question: With COc1ccc(CC2c3cc(OC)c(OC)cc3CC[N+]2(C)CCC(=O)OCCCCCOC(=O)CC[N+]2(C)CCc3cc(OC)c(OC)cc3C2Cc2ccc(OC)c(OC)c2)cc1OC (stereo not given) as the compound, how does the pIC50 [1] read?
Answer: 5.52

Question: With COc1cc2c3cc1Oc1cc(ccc1O)C[C@@H]1c4c(cc(OC)c(O)c4Oc4ccc(cc4)C[C@@H]3N(C)CC2)CC[N+]1(C)C as the compound, how does the pIC50 [1] read?
Answer: 5.52

Question: With c1ccc2c(c1)c1cc[n+]2CCCCC[n+]2ccc(c3ccccc32)NCCCCCN1 as the compound, how does the pKi [2] read?
Answer: 9.85

Question: With C=CC1CN2CCC1CC2[C@H](O)c1ccnc2ccccc12 (stereo not given in full) as the compound, how does the pIC50 [1] read?
Answer: 3.38

Question: With Nc1c2ccccc2nc2ccccc12 [AMINACRINE] as the compound, how does the pIC50 [1] read?
Answer: 3.92

Question: With C=C[C@H]1CN2CC[C@H]1C[C@@H]2[C@@H](O)c1ccnc2ccccc12 [CINCHONINE] as the compound, how does the pIC50 [1] read?
Answer: 3.43

Question: With C[N+](C)(C)CCCCCCCCCC[N+](C)(C)C [DECAMETHONIUM] as the compound, how does the pIC50 [1] read?
Answer: 3.35

Question: With Cc1cc(N)c2ccccc2[n+]1CCCCCCCCCC[n+]1c(C)cc(N)c2ccccc21 [DEQUALINIUM CHLORIDE] as the compound, how does the pIC50 [1] read?
Answer: 5.77

Question: With CCCCOc1cc(C(=O)NCCN(CC)CC)c2ccccc2n1 [DIBUCAINE] as the compound, how does the pIC50 [1] read?
Answer: 3.33

Question: With CC[N+](CC)(CC)CCOc1cccc(OCC[N+](CC)(CC)CC)c1OCC[N+](CC)(CC)CC [GALLAMINE] as the compound, how does the pIC50 [1] read?
Answer: 4.92

Question: With C[N+](C)(C)CCCCCC[N+](C)(C)C [HEXAMETHONIUM CHLORIDE] as the compound, how does the pIC50 [1] read?
Answer: 2.70

Question: With CC(=O)O[C@H]1C[C@@H]2CC[C@@H]3[C@H](CC[C@@]4(C)[C@H]3C[C@H]([N+]3(C)CCCCC3)[C@@H]4OC(C)=O)[C@@]2(C)C[C@@H]1[N+]1(C)CCCCC1 [PANCURONIUM] as the compound, how does the pIC50 [1] read?
Answer: 5.46

Question: With COc1cc(NC(C)CCCN)c2ncccc2c1 (stereo not given) [PRIMAQUINE] as the compound, how does the pIC50 [1] read?
Answer: 3.01

Question: With CCN(CC)CCCC(C)Nc1c2ccc(Cl)cc2nc2ccc(OC)cc12 (stereo not given) [QUINACRINE] as the compound, how does the pIC50 [1] read?
Answer: 4.14

Question: With C=C[C@H]1CN2CC[C@H]1C[C@@H]2[C@@H](O)c1ccnc2ccc(OC)cc12 [QUINIDINE] as the compound, how does the pIC50 [1] read?
Answer: 3.62

Question: With C=C[C@H]1CN2CC[C@H]1C[C@H]2[C@H](O)c1ccnc2ccc(OC)cc12 [QUININE] as the compound, how does the pIC50 [1] read?
Answer: 3.82

Question: With O=C1C[C@@H]2OCC=C3CN4CC[C@]56c7ccccc7N1[C@H]5[C@H]2[C@H]3C[C@H]46 [STRYCHNINE] as the compound, how does the pIC50 [1] read?
Answer: 3.72

Question: With CC[N+](CC)(CC)CC [TETRYLAMMONIUM] as the compound, how does the pIC50 [1] read?
Answer: 2.10

Question: With c1ccc2c(c1)c1cc[n+]2Cc2ccc(cc2)Cc2ccc(cc2)C[n+]2ccc(c3ccccc32)NCCCCCCCCCCN1 [UCL-1530] as the compound, how does the pIC50 [1] read?
Answer: 5.59

Question: With CC(=O)O[C@H]1C[C@@H]2CC[C@@H]3[C@H](CC[C@@]4(C)[C@H]3C[C@H]([N+]3(C)CCCCC3)[C@@H]4OC(C)=O)[C@@]2(C)C[C@@H]1N1CCCCC1 [VECURONIUM] as the compound, how does the pIC50 [1] read?
Answer: 5.35

Source: ChEMBL document CHEMBL1137133, “Defining determinant molecular properties for the blockade of the apamin-sensitive SKCa channel in guinea-pig hepatocytes: the influence of polarizability and molecular geometry” (Bioorg Med Chem Lett, 2004)
